A word on the EC50: it is the concentration needed to bring the measured effect to its halfway point.

The experiment concerns the target T1, human GIPR (Homo sapiens, UniProt P48546).
T1 construct: host or cells: CHO-K1
T1 sequence (P48546 22-466): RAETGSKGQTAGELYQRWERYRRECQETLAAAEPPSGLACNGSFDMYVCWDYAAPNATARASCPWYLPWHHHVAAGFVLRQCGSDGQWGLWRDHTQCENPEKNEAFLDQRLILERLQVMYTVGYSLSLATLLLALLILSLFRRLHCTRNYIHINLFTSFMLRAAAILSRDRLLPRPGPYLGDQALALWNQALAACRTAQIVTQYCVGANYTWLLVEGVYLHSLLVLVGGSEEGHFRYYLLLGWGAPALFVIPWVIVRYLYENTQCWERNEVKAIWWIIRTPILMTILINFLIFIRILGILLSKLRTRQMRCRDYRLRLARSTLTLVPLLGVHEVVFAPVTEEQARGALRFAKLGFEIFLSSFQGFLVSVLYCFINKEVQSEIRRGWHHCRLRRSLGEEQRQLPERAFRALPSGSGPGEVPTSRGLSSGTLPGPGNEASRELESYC
The experiment can be described thus: cAMP production in CHO-K1 cells expressing human GIPR (LANCE cAMP assay). It is filed as cell-based. Particulars: for Emax: CHO-K1, read-out: % activation of cAMP (maximal stimulation). As to the method: CHO—K1 cells expressing human GIPR were obtained from DiscoverX Corporation (Fremont, Calif.). The cells were cultured in Ham's F-12 nutrient media supplemented with 10% foetal bovine serum, 800 μg/ml geneticin, 300 μg/ml hydromycin, 2 mM L-glutamine, and Penicillin-streptomycin (100 units, 100 μg) at 37° C. in a 5% CO2 incubator. The cells were harvested at 90% confluence.
The cells were suspended in Ham's F-12 nutrient media to a concentration of 200,000 cells/ml. The cells were then plated in a 384 well plate at with […] of the suspension added per well. The cells were incubated overnight at 37° C. in a 5% CO2 incubator.
The activity of the compounds was determined by stimulating the CHO—K1 cells with the test compound, and measuring the levels of cAMP produced. The activity of the compounds was compared to the activity of native GIP, as GIP stimulates cAMP production. 6 μl of the test compound in stimulation buffer (990 ml Hank's Balanced Salt solution (HBSS) (1×) (Invitrogen Corp #14025-092), 10 ml Hepes buffer solution (1 mol·L) (Invitrogen Corp 15630-080), 1 g BSA (final 0.1%), and 1 ml IBMX 250 mM stock prepared fresh in DMSO (Sigma-Aldrich 15879)) were added to cells, followed by 6 μl of Alexa Fluor® 647-anti cAMP antibody (Perkin Elmer) in stimulation buffer. […] The well plate was centrifuged for 3 min at 300 rpm, and incubated at room temperature for 45 minutes. 12 μl of detection mixture (biotin cAMP and EUW8044 labeled streptavidin (Eu-SA) in cAMP Detection Buffer (Perkin Elmer)) was added and incubated for 60 min at room temperature.
The levels of cAMP produced were measured according to the detailed protocol outlined in the Perkin Elmer LANCE cAMP Assay Perkin Elmer Lance cAMP Kit manual. The activity of the compounds was compared to the activity of native GIP.
The plates are read on a TRF detection instrument, EnVision® (Perkin Elmer) (excitation at 340 nm and emission at 665 nm). The values of the cAMP signal are obtained from the standard cAMP curve and used to determine the amount of maximal stimulation, and EC50 for stimulating the cAMP signal.

For the compound `CC[C@H](C)[C@H](NC(=O)[C@H](CO)NC(=O)[C@H](Cc1ccc(O)cc1)NC(=O)[C@H](CC(=O)O)NC(=O)[C@H](CO)NC(=O)[C@@H](NC(=O)[C@H](Cc1ccccc1)NC(=O)[C@@H](NC(=O)CNC(=O)[C@H](CCC(=O)O)NC(=O)[C@H](C)NC(=O)[C@@H](Cc1ccccc1Cl)NC(C)=O)[C@@H](C)O)[C@@H](C)CC)C(=O)N[C@@H](C)C(=O)N[C@@H](CCSC)C(=O)N[C@@H](CC(=O)O)C(=O)N[C@@H](CCCCN)C(=O)N[C@H](C(=O)N[C@@H](Cc1c[nH]cn1)C(=O)N[C@@H](CCC(N)=O)C(=O)N[C@@H](CCC(N)=O)C(=O)N[C@@H](CC(=O)O)C(=O)N[C@@H](Cc1ccccc1)C(=O)N[C@H](C(=O)N[C@@H](CC(N)=O)C(=O)N[C@@H](Cc1c[nH]c2ccccc12)C(=O)N[C@@H](CC(C)C)C(=O)N[C@@H](CC(C)C)C(=O)N[C@@H](C)C(=O)N[C@@H](CCC(N)=O)C(=O)N[C@@H](CCCCN)C(N)=O)C(C)C)[C@@H](C)CC` [Example 12], the EC50 was found to be 0.121 nM and the Emax is 104%.
Consider “Ac-(D)Tyr-Ala-Glu-Gly-Thr-Phe-Ile-Ser-Asp-Tyr-Ser-Ile-Ala-Met-Asp-Lys-Ile-His-Gln-Gln-Asp-Phe-Val-Asn-Trp-Leu-Leu-Ala-Gln-Lys-NH2 [Example 6]”, for which the “% activation of cAMP (maximal stimulation)” value (CHO-K1 cells expressing human GIPR, compared to native GIP) is listed as 102%.
With `CC[C@H](C)[C@H](NC(=O)[C@H](CO)NC(=O)[C@H](Cc1ccc(O)cc1)NC(=O)[C@H](CC(=O)O)NC(=O)[C@H](CO)NC(=O)[C@@H](NC(=O)[C@H](Cc1ccccc1)NC(=O)[C@@H](NC(=O)CNC(=O)[C@H](CCC(=O)O)NC(=O)[C@H](C)NC(=O)[C@@H](Cc1ccccc1F)NC(C)=O)[C@@H](C)O)[C@@H](C)CC)C(=O)N[C@@H](C)C(=O)N[C@@H](CCSC)C(=O)N[C@@H](CC(=O)O)C(=O)N[C@@H](CCCCN)C(=O)N[C@H](C(=O)N[C@@H](Cc1c[nH]cn1)C(=O)N[C@@H](CCC(N)=O)C(=O)N[C@@H](CCC(N)=O)C(=O)N[C@@H](CC(=O)O)C(=O)N[C@@H](Cc1ccccc1)C(=O)N[C@H](C(=O)N[C@@H](CC(N)=O)C(=O)N[C@@H](Cc1c[nH]c2ccccc12)C(=O)N[C@@H](CC(C)C)C(=O)N[C@@H](CC(C)C)C(=O)N[C@@H](C)C(=O)N[C@@H](CCC(N)=O)C(=O)N[C@@H](CCCCN)C(N)=O)C(C)C)[C@@H](C)CC` [Example 15], it took 0.0075 nM to reach a half-maximal effect (EC50) and the Emax amounted to 99.8%.
Turning to `CC[C@H](C)[C@H](NC(=O)[C@H](CO)NC(=O)[C@H](Cc1ccc(O)cc1)NC(=O)[C@H](CC(=O)O)NC(=O)[C@H](CO)NC(=O)[C@@H](NC(=O)[C@H](Cc1ccccc1)NC(=O)[C@@H](NC(=O)CNC(=O)[C@H](CCC(=O)O)NC(=O)[C@H](C)NC(=O)[C@@H](Cc1cccc(Cl)c1)NC(C)=O)[C@@H](C)O)[C@@H](C)CC)C(=O)N[C@@H](C)C(=O)N[C@@H](CCSC)C(=O)N[C@@H](CC(=O)O)C(=O)N[C@@H](CCCCN)C(=O)N[C@H](C(=O)N[C@@H](Cc1c[nH]cn1)C(=O)N[C@@H](CCC(N)=O)C(=O)N[C@@H](CCC(N)=O)C(=O)N[C@@H](CC(=O)O)C(=O)N[C@@H](Cc1ccccc1)C(=O)N[C@H](C(=O)N[C@@H](CC(N)=O)C(=O)N[C@@H](Cc1c[nH]c2ccccc12)C(=O)N[C@@H](CC(C)C)C(=O)N[C@@H](CC(C)C)C(=O)N[C@@H](C)C(=O)N[C@@H](CCC(N)=O)C(=O)N[C@@H](CCCCN)C(N)=O)C(C)C)[C@@H](C)CC` [Example 13], the midpoint of the response, the EC50, lay at 0.072 nM and the Emax is 106%.

Values taken from patent US9023986B2, “Glucose-dependent insulinotropic peptide analogs” (Hoffmann-La Roche Inc., priority 2010, dated 2015).
